In patent publication US11083725B2 (priority 2014, dated 2021):

Test system: NHBE cells
Assay: Biolog metabolic array: substrate use by NHBE cells with or without CA09 infection
Format: cell-based, human
Settings: for Substrate use, 590 nm absorbance normalized to zero hour, 0 hr: Biolog PMM2, 0 hr; for Substrate use, 590 nm absorbance normalized to zero hour, 1 hr: Biolog PMM2, 1 hr; for Substrate use, 590 nm absorbance normalized to zero hour, 5 hr: Biolog PMM2, 5 hr; for Substrate use, 590 nm absorbance normalized to zero hour, 7 hr: Biolog PMM2, 7 hr
[1] = Control (uninfected) NHBE cells
[2] = Virus (CA09-infected, MOI 1) NHBE cells
[3] = Virus: CA09-infected NHBE cells, MOI 1, Biolog PMM2
[4] = Virus (CA09-infected NHBE cells, MOI 1)

## OC[C@H]1OC(O)[C@@H](O)[C@@H](O)[C@@H]1O (stereo partly drawn) [D-Mannose]
[1]
  590 nm absorbance normalized to zero hour (substrate use), 0 hr: 1.00
  590 nm absorbance normalized to zero hour (substrate use), 1 hr: 2.20
  590 nm absorbance normalized to zero hour (substrate use), 2 hr: 3.33
  590 nm absorbance normalized to zero hour (substrate use), 3 hr: 4.33
  590 nm absorbance normalized to zero hour (substrate use), 4 hr: 4.90
  590 nm absorbance normalized to zero hour (substrate use), 6 hr: 6.50
  590 nm absorbance normalized to zero hour (substrate use), 8 hr: 8.13
  590 nm absorbance normalized to zero hour (substrate use), 9 hr: 9.60
  590 nm absorbance normalized to zero hour (substrate use), 10 hr: 10.60
  590 nm absorbance normalized to zero hour (substrate use), 11 hr: 12.47
  Substrate use, 590 nm absorbance normalized to zero hour, 0 hr: 1.00
  Substrate use, 590 nm absorbance normalized to zero hour, 1 hr: 2.20
  Substrate use, 590 nm absorbance normalized to zero hour, 5 hr: 6.64
  Substrate use, 590 nm absorbance normalized to zero hour, 7 hr: 8.62
[2]
  590 nm absorbance normalized to zero hour (substrate use), 0 hr: 1.00
  590 nm absorbance normalized to zero hour (substrate use), 1 hr: 1.49
  590 nm absorbance normalized to zero hour (substrate use), 2 hr: 2.09
  590 nm absorbance normalized to zero hour (substrate use), 3 hr: 2.68
  590 nm absorbance normalized to zero hour (substrate use), 4 hr: 3.06
  590 nm absorbance normalized to zero hour (substrate use), 5 hr: 4.10
  590 nm absorbance normalized to zero hour (substrate use), 6 hr: 4.57
  590 nm absorbance normalized to zero hour (substrate use), 7 hr: 4.94
  590 nm absorbance normalized to zero hour (substrate use), 8 hr: 5.47
  590 nm absorbance normalized to zero hour (substrate use), 9 hr: 6.51
  590 nm absorbance normalized to zero hour (substrate use), 10 hr: 6.80
  590 nm absorbance normalized to zero hour (substrate use), 11 hr: 7.75
[3]
  590 nm absorbance normalized to zero hour (substrate use), 0 hr: 1.00
  590 nm absorbance normalized to zero hour (substrate use), 1 hr: 1.49
  590 nm absorbance normalized to zero hour (substrate use), 2 hr: 2.09
  590 nm absorbance normalized to zero hour (substrate use), 3 hr: 2.68
  590 nm absorbance normalized to zero hour (substrate use), 4 hr: 3.06
  590 nm absorbance normalized to zero hour (substrate use), 5 hr: 4.10
  590 nm absorbance normalized to zero hour (substrate use), 6 hr: 4.57
  590 nm absorbance normalized to zero hour (substrate use), 7 hr: 4.94
  590 nm absorbance normalized to zero hour (substrate use), 8 hr: 5.47
  590 nm absorbance normalized to zero hour (substrate use), 9 hr: 6.51
  590 nm absorbance normalized to zero hour (substrate use), 10 hr: 6.80
  590 nm absorbance normalized to zero hour (substrate use), 11 hr: 7.75

## O=C(O)CCC(=O)C(=O)O [a-Keto-Glutaric Acid]
[1]
  590 nm absorbance normalized to zero hour (substrate use), 0 hr: 1.00
  590 nm absorbance normalized to zero hour (substrate use), 1 hr: 1.29
  590 nm absorbance normalized to zero hour (substrate use), 2 hr: 1.54
  590 nm absorbance normalized to zero hour (substrate use), 3 hr: 1.40
  590 nm absorbance normalized to zero hour (substrate use), 4 hr: 1.45
  590 nm absorbance normalized to zero hour (substrate use), 6 hr: 1.98
  590 nm absorbance normalized to zero hour (substrate use), 8 hr: 1.69
  590 nm absorbance normalized to zero hour (substrate use), 9 hr: 1.80
  590 nm absorbance normalized to zero hour (substrate use), 10 hr: 1.93
  590 nm absorbance normalized to zero hour (substrate use), 11 hr: 2.00
  Substrate use, 590 nm absorbance normalized to zero hour, 0 hr: 1.00
  Substrate use, 590 nm absorbance normalized to zero hour, 1 hr: 1.29
  Substrate use, 590 nm absorbance normalized to zero hour, 5 hr: 1.52
  Substrate use, 590 nm absorbance normalized to zero hour, 7 hr: 1.61
[4]
  590 nm absorbance normalized to zero hour (substrate use), 0 hr: 1.00
  590 nm absorbance normalized to zero hour (substrate use), 1 hr: 0.28
  590 nm absorbance normalized to zero hour (substrate use), 2 hr: 0.37
  590 nm absorbance normalized to zero hour (substrate use), 3 hr: 0.45
  590 nm absorbance normalized to zero hour (substrate use), 4 hr: 0.46
  590 nm absorbance normalized to zero hour (substrate use), 5 hr: 0.51
  590 nm absorbance normalized to zero hour (substrate use), 6 hr: 0.54
  590 nm absorbance normalized to zero hour (substrate use), 7 hr: 0.56
  590 nm absorbance normalized to zero hour (substrate use), 8 hr: 0.58
  590 nm absorbance normalized to zero hour (substrate use), 9 hr: 0.64
  590 nm absorbance normalized to zero hour (substrate use), 10 hr: 0.64
  590 nm absorbance normalized to zero hour (substrate use), 11 hr: 0.69
[3]
  590 nm absorbance normalized to zero hour (substrate use), 0 hr: 1.00
  590 nm absorbance normalized to zero hour (substrate use), 1 hr: 0.28
  590 nm absorbance normalized to zero hour (substrate use), 2 hr: 0.37
  590 nm absorbance normalized to zero hour (substrate use), 3 hr: 0.45
  590 nm absorbance normalized to zero hour (substrate use), 4 hr: 0.46
  590 nm absorbance normalized to zero hour (substrate use), 5 hr: 0.51
  590 nm absorbance normalized to zero hour (substrate use), 6 hr: 0.54
  590 nm absorbance normalized to zero hour (substrate use), 7 hr: 0.56
  590 nm absorbance normalized to zero hour (substrate use), 8 hr: 0.58
  590 nm absorbance normalized to zero hour (substrate use), 9 hr: 0.64
  590 nm absorbance normalized to zero hour (substrate use), 10 hr: 0.64
  590 nm absorbance normalized to zero hour (substrate use), 11 hr: 0.69

## O=C(CO)[C@@H](O[C@H]1O[C@H](CO)[C@@H](O)[C@H](O)[C@H]1O)[C@H](O)[C@H](O)CO [Turanose]
[1]
  590 nm absorbance normalized to zero hour (substrate use), 0 hr: 1.00
  590 nm absorbance normalized to zero hour (substrate use), 1 hr: 0.23
  590 nm absorbance normalized to zero hour (substrate use), 2 hr: 0.31
  590 nm absorbance normalized to zero hour (substrate use), 3 hr: 0.36
  590 nm absorbance normalized to zero hour (substrate use), 4 hr: 0.40
  590 nm absorbance normalized to zero hour (substrate use), 6 hr: 0.49
  590 nm absorbance normalized to zero hour (substrate use), 8 hr: 0.51
  590 nm absorbance normalized to zero hour (substrate use), 9 hr: 0.57
  590 nm absorbance normalized to zero hour (substrate use), 10 hr: 0.57
  590 nm absorbance normalized to zero hour (substrate use), 11 hr: 0.60
  Substrate use, 590 nm absorbance normalized to zero hour, 0 hr: 1.00
  Substrate use, 590 nm absorbance normalized to zero hour, 1 hr: 0.23
  Substrate use, 590 nm absorbance normalized to zero hour, 5 hr: 0.55
  Substrate use, 590 nm absorbance normalized to zero hour, 7 hr: 0.44
[2]
  590 nm absorbance normalized to zero hour (substrate use), 0 hr: 1.00
  590 nm absorbance normalized to zero hour (substrate use), 1 hr: 0.20
  590 nm absorbance normalized to zero hour (substrate use), 2 hr: 0.28
  590 nm absorbance normalized to zero hour (substrate use), 3 hr: 0.34
  590 nm absorbance normalized to zero hour (substrate use), 4 hr: 0.36
  590 nm absorbance normalized to zero hour (substrate use), 5 hr: 0.44
  590 nm absorbance normalized to zero hour (substrate use), 6 hr: 0.48
  590 nm absorbance normalized to zero hour (substrate use), 7 hr: 0.51
  590 nm absorbance normalized to zero hour (substrate use), 8 hr: 0.56
  590 nm absorbance normalized to zero hour (substrate use), 9 hr: 0.61
  590 nm absorbance normalized to zero hour (substrate use), 10 hr: 0.60
  590 nm absorbance normalized to zero hour (substrate use), 11 hr: 0.55
[3]
  590 nm absorbance normalized to zero hour (substrate use), 0 hr: 1.00
  590 nm absorbance normalized to zero hour (substrate use), 1 hr: 0.20
  590 nm absorbance normalized to zero hour (substrate use), 2 hr: 0.28
  590 nm absorbance normalized to zero hour (substrate use), 3 hr: 0.34
  590 nm absorbance normalized to zero hour (substrate use), 4 hr: 0.36
  590 nm absorbance normalized to zero hour (substrate use), 5 hr: 0.44
  590 nm absorbance normalized to zero hour (substrate use), 6 hr: 0.48
  590 nm absorbance normalized to zero hour (substrate use), 7 hr: 0.51
  590 nm absorbance normalized to zero hour (substrate use), 8 hr: 0.56
  590 nm absorbance normalized to zero hour (substrate use), 9 hr: 0.61
  590 nm absorbance normalized to zero hour (substrate use), 10 hr: 0.60
  590 nm absorbance normalized to zero hour (substrate use), 11 hr: 0.55
